Measured values as given in patent US6486098B1, “Herbicidal phenoxypropionic acid N-alkyl-N-2-fluorophenyl amide compounds” (Dongbu Hannong Chemical Co. Ltd., priority 1999, dated 2002).

What was measured:
[1] = system: TRZAW (Wheat); test: Leaf treatment test, wheat; type: in vivo, Triticum aestivum L.; conditions: 14 days after treatment
Method: (§1) Seeds of rice, wheat, barley, corn, cotton, barnyard grass, common sorgum, large crabgrass and fall panicum were seeded at a pot with a surface area of 600 cm^2. […] 14 days after the treatment, the degree of damage to the plants was rated in % damage in comparison to the development of untreated control.

[2] = system: SORBI (Common sorgum); test: Leaf treatment test, common sorgum; type: in vivo, Andropogon sorghum; conditions: 14 days after treatment
Method: as §1

[3] = system: DIGSA (Large crabgrass); test: Leaf treatment test, large crabgrass; type: in vivo, Digitaria Sanguinalis (L.) SCOP; conditions: 14 days after treatment
Method: as §1

[4] = system: GLXMA (Soy bean); test: Leaf treatment test, soy bean; type: in vivo, Glycine max (L.) MERR; conditions: 14 days after treatment
[5] = system: ECHCG (Barnyard grass); test: Leaf treatment test, barnyard grass; type: in vivo, Echinochloa crus-galli Beauv. var. caudata Kitagawa; conditions: leaf treatment at three leaves, 14 days after treatment
Method: as §1

[6] = system: GOSHI (Cotton); test: Leaf treatment test, cotton; type: in vivo, Gossypium; conditions: 14 days after treatment
Method: as §1

[7] = system: ZEAMX (Corn); test: Leaf treatment test, corn; type: in vivo, Zea mays L.; conditions: 14 days after treatment
Method: as §1

[8] = system: PANDI (Fall panicum); test: Leaf treatment test, fall panicum; type: in vivo, Panicum dichotomiflorum Michx; conditions: 14 days after treatment
Method: as §1

[9] = system: ORYSA (Rice); test: Leaf treatment test, rice; type: in vivo, Oryza sativa L. cv. Dongjin; conditions: 14 days after treatment
Method: as §1

SMILES	degree of damage to the plants (% damage) ([1]; treated amount 0.025 kg/ha) [%]	degree of damage to the plants (% damage) ([1]; treated amount 0.1 kg/ha) [%]	degree of damage to the plants (% damage) ([1]; treated amount 0.4 kg/ha) [%]	degree of damage to the plants (% damage) ([2]; treated amount 0.025 kg/ha) [%]	degree of damage to the plants (% damage) ([2]; treated amount 0.1 kg/ha) [%]	degree of damage to the plants (% damage) ([2]; treated amount 0.4 kg/ha) [%]	degree of damage to the plants (% damage) ([3]; treated amount 0.025 kg/ha) [%]	degree of damage to the plants (% damage) ([3]; treated amount 0.1 kg/ha) [%]	degree of damage to the plants (% damage) ([3]; treated amount 0.4 kg/ha) [%]	degree of damage to the plants (% damage) ([4]; treated amount 0.025 kg/ha) [%]	degree of damage to the plants (% damage) ([4]; treated amount 0.1 kg/ha) [%]	degree of damage to the plants (% damage) ([4]; treated amount 0.4 kg/ha) [%]	degree of damage to the plants (% damage) ([5]; treated amount 0.025 kg/ha) [%]	degree of damage to the plants (% damage) ([5]; treated amount 0.1 kg/ha) [%]	degree of damage to the plants (% damage) ([5]; treated amount 0.4 kg/ha) [%]	degree of damage to the plants (% damage) ([6]; treated amount 0.025 kg/ha) [%]	degree of damage to the plants (% damage) ([6]; treated amount 0.1 kg/ha) [%]	degree of damage to the plants (% damage) ([6]; treated amount 0.4 kg/ha) [%]	degree of damage to the plants (% damage) ([7]; treated amount 0.025 kg/ha) [%]	degree of damage to the plants (% damage) ([7]; treated amount 0.1 kg/ha) [%]	further results
CCN(C(=O)C(C)Oc1ccc(Oc2nc3ccc(Cl)cc3o2)cc1)c1ccccc1F (stereo not drawn) [Compound No. 2]	0	0	0	40	95	100	30	95	100	0	0	10	20	80	95	0	0	0	5	10	degree of damage to the plants (% damage) ([7]; treated amount 0.4 kg/ha): 70%; degree of damage to the plants (% damage) ([8]; treated amount 0.025 kg/ha): 0%; degree of damage to the plants (% damage) ([8]; treated amount 0.1 kg/ha): 100%; degree of damage to the plants (% damage) ([8]; treated amount 0.4 kg/ha): 100%; degree of damage to the plants (% damage) ([9]; treated amount 0.025 kg/ha): 0%; degree of damage to the plants (% damage) ([9]; treated amount 0.1 kg/ha): 0%; degree of damage to the plants (% damage) ([9]; treated amount 0.4 kg/ha): 0%
CC(Oc1ccc(Oc2nc3ccc(Cl)cc3o2)cc1)C(=O)N(C)c1cc(F)c(F)cc1F (stereo not drawn) [Compound No. 3, 2-[4-(6-Chloro-2-benzoxazoyloxy)-phenoxy]propionic Acid-N-methyl-N-(2,4,5-trifluorophenyl)amide]	0	0	0	40	100	100	30	90	100	0	0	10	0	60	95	0	0	0	0	0	degree of damage to the plants (% damage) ([7]; treated amount 0.4 kg/ha): 0%; degree of damage to the plants (% damage) ([8]; treated amount 0.025 kg/ha): 0%; degree of damage to the plants (% damage) ([8]; treated amount 0.1 kg/ha): 0%; degree of damage to the plants (% damage) ([8]; treated amount 0.4 kg/ha): 0%; degree of damage to the plants (% damage) ([9]; treated amount 0.025 kg/ha): 0%; degree of damage to the plants (% damage) ([9]; treated amount 0.1 kg/ha): 0%; degree of damage to the plants (% damage) ([9]; treated amount 0.4 kg/ha): 10%
CC(Oc1ccc(Oc2nc3ccc(Cl)cc3o2)cc1)C(=O)N(C)c1c(F)cccc1F (stereo not drawn) [Compound No. 4, 2-[4-(6-Chloro-2-benzoxazoyloxy)-phenoxy]propionic Acid-N-methyl-N-(2,6-difluoro-phenyl)amide]	0	0	0	95	100	100	90	100	100	0	0	20	80	95	100	0	0	0	10	40	degree of damage to the plants (% damage) ([7]; treated amount 0.4 kg/ha): 100%; degree of damage to the plants (% damage) ([8]; treated amount 0.025 kg/ha): 40%; degree of damage to the plants (% damage) ([8]; treated amount 0.1 kg/ha): 100%; degree of damage to the plants (% damage) ([8]; treated amount 0.4 kg/ha): 100%; degree of damage to the plants (% damage) ([9]; treated amount 0.025 kg/ha): 0%; degree of damage to the plants (% damage) ([9]; treated amount 0.1 kg/ha): 20%; degree of damage to the plants (% damage) ([9]; treated amount 0.4 kg/ha): 30%
CC(Oc1ccc(Oc2nc3ccc(Cl)cc3o2)cc1)C(=O)N(C)c1ccc(F)cc1F (stereo not drawn) [Compound No. 5, 2-[4-(6-Chloro-2-benzoxazoyloxy)-phenoxy]propionic Acid-N-(2,4-difluorophenyl)-N-methyl Amide]	0	0	0	100	100	100	100	100	100	0	0	0	0	100	100	0	0	0	0	30	degree of damage to the plants (% damage) ([7]; treated amount 0.4 kg/ha): 100%; degree of damage to the plants (% damage) ([8]; treated amount 0.025 kg/ha): 40%; degree of damage to the plants (% damage) ([8]; treated amount 0.1 kg/ha): 80%; degree of damage to the plants (% damage) ([8]; treated amount 0.4 kg/ha): 100%; degree of damage to the plants (% damage) ([9]; treated amount 0.025 kg/ha): 0%; degree of damage to the plants (% damage) ([9]; treated amount 0.1 kg/ha): 0%; degree of damage to the plants (% damage) ([9]; treated amount 0.4 kg/ha): 0%
CC(Oc1ccc(Oc2nc3ccc(Cl)cc3o2)cc1)C(=O)N(C)c1c(F)ccc(F)c1F (stereo not drawn) [Compound No. 6, 2-[4-(6-Chloro-2-benzoxazoyloxy)-phenoxy]propionic Acid-N-methyl-N-(2,3,6-trifluorophenyl)amide]	0	0	0	100	100	100	40	100	100	0	0	0	95	100	100	0	0	0	30	100	degree of damage to the plants (% damage) ([7]; treated amount 0.4 kg/ha): 100%; degree of damage to the plants (% damage) ([8]; treated amount 0.025 kg/ha): 40%; degree of damage to the plants (% damage) ([8]; treated amount 0.1 kg/ha): 100%; degree of damage to the plants (% damage) ([8]; treated amount 0.4 kg/ha): 100%; degree of damage to the plants (% damage) ([9]; treated amount 0.025 kg/ha): 0%; degree of damage to the plants (% damage) ([9]; treated amount 0.1 kg/ha): 0%; degree of damage to the plants (% damage) ([9]; treated amount 0.4 kg/ha): 20%
Cc1ccc(F)c(N(C)C(=O)C(C)Oc2ccc(Oc3nc4ccc(Cl)cc4o3)cc2)c1 (stereo not drawn) [Compound No. 7]	0	0	0	10	95	100	100	100	100	0	0	10	20	40	40	0	0	0	0	0	degree of damage to the plants (% damage) ([7]; treated amount 0.4 kg/ha): 0%; degree of damage to the plants (% damage) ([8]; treated amount 0.025 kg/ha): 100%; degree of damage to the plants (% damage) ([8]; treated amount 0.1 kg/ha): 100%; degree of damage to the plants (% damage) ([8]; treated amount 0.4 kg/ha): 100%; degree of damage to the plants (% damage) ([9]; treated amount 0.025 kg/ha): 0%; degree of damage to the plants (% damage) ([9]; treated amount 0.1 kg/ha): 0%; degree of damage to the plants (% damage) ([9]; treated amount 0.4 kg/ha): 0%
